Reference: BindingDB's records for patent WO2022104345 (Genentech, 2022)

Each molecule was assayed against von Hippel-Lindau disease tumor suppressor (Homo sapiens, UniProt P40337) (assay: VHL HEK-293 BRET Assay).
Experimental: The VHL NanoBRET Target Engagement Assay analyzes the apparent affinity of test compounds for VHL in cells by competitive displacement of a VHL NanoBRET tracer reversibly bound to a NanoLuc VHL fusion protein stably expressed in the cells.[0488] Test compounds were transferred to the assay plate (384 Well White Non-Binding Corning Assay Plates (Corning-3574)) using an Echo 555 Liquid Handler (Labcyte) in 2.5 nL increments and, as appropriate, intermediate stock concentrations of compounds, in order to prepare a titration series.50 nL of control compound (10mM; parental unlabeled VHL antagonist; see structure below) and 50 nL of DMSO (negative control) were dispensed into the appropriate control wells. DMSO was backfilled to a final volume of 50 nL as required.50nl per well of 1 mM VHL NanoBRET Tracer in DMSO (NanoBRETTM Tracer-PEG2-590 (see structure below)) was transferred into each well using an Echo 555 (ultimately yielding a final concentration of 1uM). HEK 293 RT VHL-NanoLuc stable cells were cultured in DMEM High Glucose with Pyruvate, 10% fetal bovine serum, 2 mg/mL of Geneticin Selective Antibiotic (50 mg/ml) and 2 mM HEPES (1 M). Cells were seeded in Opti-MEM (Life Technologies-11058-021), 1.7 × 10^5 cells/mL, 40 ^l per well into the assay plate, centrifuged at 500 rpm for 30 seconds and incubated for 2 hours. Max Signal control wells consisted of DMSO only treated wells. Minimum Signal control wells contained of 10 uM parental unlabeled VHL antagonist (control compound see structure below). 3X Complete Substrate plus Inhibitor Solution was prepared in Opti-MEM (consists of a 1:166 dilution of NanoBRET Nano-Glo Substrate plus a 1:500 dilution of Extracellular NanoLuc Inhibitor in Opti-MEM), and 20 ul was dispensed into each well of the 384-well plate and centrifuged at 1000 rpm for 1 minute, then incubated for 2 minutes at room temperature. Background Signal control wells were prepared without tracer for background correction steps.[0489] Plates were read using a PerkinElmer Envision Reader (model 2104-0020) equipped with Luminescence option (Mirror: BRET2 Enh (PE Barcode 659), Emission Filter: Omega 610LP (Barcode 504), 2nd Emission Filter: Umbelliferone 460 (Barcode 207), Measurement height: 6.5 mm, Measurement time: 1s). The raw BRET ratio values were calculated by dividing the acceptor emission value (610 nm) by the donor emission value (460nm) for each sample. To correct for background, the BRET ratio in the absence of tracer (average of no-tracer control samples) was subtracted from the BRET ratio of each sample. Raw BRET units were converted to milliBRET units (mBU) by multiplying each raw BRET value by 1,000. The normalized NanoBRET signal was calculated relative to the Max Signal control wells (DMSO treated control wells) and the Minimum Signal control wells. Percentage inhibition was calculated relative to the Minimum Signal control and Maximum Signal control wells. IC50 values were derived by four parameter curve fitting using the Robust method.

Chain of von Hippel-Lindau disease tumor suppressor (P40337 whole entry, the tested form may be a part): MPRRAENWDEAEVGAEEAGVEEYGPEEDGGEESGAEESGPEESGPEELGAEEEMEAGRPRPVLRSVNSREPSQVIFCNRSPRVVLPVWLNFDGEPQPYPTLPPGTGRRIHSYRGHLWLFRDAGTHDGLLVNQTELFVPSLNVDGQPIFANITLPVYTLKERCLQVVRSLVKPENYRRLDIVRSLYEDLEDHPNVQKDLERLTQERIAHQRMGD

IC50 | SMILES
> 100 µM | CNC(=O)[C@@H]1C[C@@H](O)CN1C(=O)[C@H](C1CCNCC1)n1cc(C2CC2)nn1 [WO2022104345, Example S7]
62.8 µM | CNC(=O)[C@@H]1C[C@@H](OC(C)=O)CN1C(=O)[C@H](n1cc(C2CC2)nn1)C(C)(C)C [WO2022104345, Compound 13]
4.75 µM | CNC(=O)[C@@H]1C[C@@H](O)CN1C(=O)C(=C(C)C)n1cc(C2CC2)nn1 [WO2022104345, Compound 32]
3 µM | CNC(=O)[C@@H]1C[C@@H](O)CN1C(=O)[C@H](C(C)C)n1cc(C2CC2)nn1 [WO2022104345, Compound 11]
1.21 µM | CNC(=O)[C@@H]1C[C@@H](O)CN1C(=O)[C@H](C(C)C)n1cc(C2(C)CC2)nn1 [WO2022104345, Compound 21]
> 100 µM | CNC(=O)[C@@H]1C[C@@H](O)CN1C(=O)[C@H](C1CCN(C)CC1)n1cc(C2CC2)nn1 [WO2022104345, Example S8]
0.9 µM | CNC(=O)[C@@H]1C[C@@H](O)CN1C(=O)[C@H](C(C)C)n1cc(-c2cncs2)nn1 [WO2022104345, Compound 41]
> 100 µM | CNC(=O)[C@@H]1C[C@@H](O)CN1C(=O)[C@@H](C(C)C)n1cc(C2CC2)nn1 [WO2022104345, Compound 12]
